Consider five compounds from PMC10401713, “Silver(I)-Catalyzed Synthesis of Cuneanes from Cubanes and their Investigation as Isosteres” (Journal of the American Chemical Society, 2023).

A short description of series [1]: logP measurement (Sirius T3, potentiometric shake-flask method, n-octanol/water). To be noted: n-octanol and water. It counts as physicochemical. How it is done:
(§1) 6. Physicochemical Measurements
(§2) The logP, pKa in H2O, and aqueous solubility were performed on a Sirius T3 instrument (Pion). The device consists of a pH-meter electrode, a robot that prepares the solutions needed to perform the measurements, and a UV-vis spectrophotometer. Basic titration is performed with a 0.5 M KOH buffer. Acidic titration is performed with a 0.5 M HCl buffer.
(§3) Log P was determined potentiometrically by using the "Shake flask" method, which consists of dissolving part of the solute in question in a volume of n-octanol and water, then performing pH […]
(§4) To obtain the pKa values, a pH-metric titration experiment was carried out. It can measure pKa values between 2 and 12. An acidic or base titrant was added to reach a starting pH at which the sample is ionized. Then, small volumes of 0.5 M HCl or KOH titrant were added and the pH was measured after each addition. Potentiometric measurement of basic compounds were done from pH 2 to pH 12 by adding 0.5 M KOH solution. Potentiometric measurement of acid ic compounds (20, S1, and 14) were done from pH 12 to pH 2 by adding 0.5 M HCl solution. Measurement points were done every 0.2 pH value. After each addition, the sample was stirred for 60 seconds and the pH value was then collected. The titration experiments were done 3 times and the stated values are averages of the 3 […]
(§5) (1 picture or pasted object on this page, not shown here)

Series [2] is described as follows: Human liver microsome stability. To be noted: liver microsomes, pH 7.4, 1 µM compound, 0.5 mg/mL protein, NADPH, 37 °C. It counts as in vitro ADME. How it is done:
(§6) 7. Microsome Stability Measurements for the Cuneane Analog of Sonidegib Microsome stability measurements were performed by Sygnature Discovery (Nottingham, United […]
(§7) The microsomal stability of a test compound is assessed by spiking compound into tissue microsomes containing NADPH in buffer and sampling for up t o 1 h at 37 °C. Following protein precipitation and centrifugation, the samples are analy zed by UPLC-MS-MS.
(§8) To assess the metabolic stability of a test compound in tissue microsomes.
(§9) • Compound identifier and molecular formula
(§10) • 20 µL of 1 mM test compound in DMSO or 1 mg solid
(§11) Dilutions of a 1 mM test compound DMSO stock solution are prepared in 0.01 M phosphate buffered saline (pH7.4)) so that the final DMSO concentration is 0.1% and the final test compound concentration tested is 1 µM. Following addition of protein (0.5 mg/mL final) and NADPH, the samples are pre-incubated for 10 min prior to the start of the incubation by the addition of […]. The test compound will be incubated (n = 2; 1 µM final concentration) at 37 °C with tissue microsomes. […]
(§12) All the samples will be mixed, centrifuged and the supernatants analysed by UPLC-MS-MS.
(§13) The intrinsic clearance (Clint) and half-life (t1/2) values will be determined from the slope of the parent depletion curve. […]
A general note: Liver microsomes are a subcellular fraction often used to study metabolism.

A short description of series [3]: Mouse liver microsome stability. The conditions noted are these: CD1, mouse, liver microsomes, pH 7.4, 1 µM compound, 0.5 mg/mL protein, NADPH, 37 °C. The series is classed as in vitro ADME. The protocol: as §6, §7, §8, §9, §10, §11, §12, §13
Series [4] can be described thus: Aqueous solubility (CheqSol method, Sirius T3). The series is classed as physicochemical. The conditions noted are these: for solubility: water, aqueous buffer, thermodynamic from solid. The protocol:
as §1
The logP, pKa in H2O, and aqueous solubility were performed on a Sirius T3 instrument (Pion). The device consists of a pH-meter electrode, a robot that prepares the solutions needed to perform the measurements, and a UV-vis spectrophotometer. Basic titration is performed with a 0.5 M KOH buffer. Acidic titration is performed with a 0.5 M HCl buffer. […]
as §5
Solubility measurements were performed using the CheqSol method developed by Pion.22 Because in most cases, compounds are more soluble at pH values where they ionized, the analyte was solubilized in acidic water before pH-titration was performed, measuring the UV-vis spectrum after each addition. The precipitation point was detected from the reduction of the light transmission during UV-vis measurement, or manually when not obvious. The pH-titration was repeated several times around the precipitation point to determine the solubility value by averaging. […]
aqueous solubility (mM) –a […]

The nature of series [5]: pKa in H2O by pH-metric titration (Sirius T3). The series is classed as physicochemical. To be noted: water, average of 3 measurements. How it is done: as §1, §2, §3, §4, §5
On the set-up of series [6]: method as in doi:10.1021/ja983441f. The conditions noted are these: literature value; ref ([32]); cited from earlier work.
Details of series [7]: method as in PMID 36763965. To be noted: literature value; ref [8b]; cited from earlier work.
On the set-up of series [8]: method as in PMID 36763965. The conditions noted are these: literature value; ref [8b]; cited from earlier work. This is another data set of the same source.
On the set-up of series [9]: method as in PMID 36763965. To be noted: literature value; ref [8b]; cited from earlier work. This is another data set of the same source.

≈ marks a conversion by molar mass, not a printed value. Where two headings read alike, the source gives them in different places. Where only a bound is given, the exact number is not on record here.

As usually defined, the logP is the decadic logarithm of the partition coefficient of the neutral form, usually between octanol and water. For orientation: microsomal CLint means the rate of metabolic loss divided by the concentration. Turning to `C[C@@H]1CN(c2ccc(NC(=O)C34C5C6C3C3C4C3(c3ccc(OC(F)(F)F)cc3)C65)cn2)C[C@H](C)O1` (stereo partly drawn) [compound 19], in series [1], the logP was 4.74 ± 0.23. Besides, the results for the intrinsic clearance (microsomal CLint) at 1 µM in [2] and in [3] were 76 µL/min/mg and 61 µL/min/mg, respectively. Further, the half-life at 1 µM in series [2] (read-out: human liver microsome stability t1/2) was 19 min; in [3] (read-out: mouse liver microsome stability t1/2), 23 min. Besides, the aqueous solubility result in series [4] is “too low to be measured”.

A word on the pKa: it is the negative logarithm of the acid dissociation constant. Read a low pKa as a stronger acid or weaker base. What is called solubility is the concentration that dissolves in the medium under given conditions. A higher solubility goes with much dissolved substance. In turn, `COC(=O)C12C3C4C5C1C2C3C45C(=O)O` (stereo not drawn) [compound 14] returned a logP in [1] of 0.72 ± 0.01. This compound displayed a pKa in series [5] of 3.99 ± 0.02. This compound also came in with a solubility in [4] of 210 mM (≈ 43.3 mg/mL).

As to `COC(=O)C12C3C4C1C1C2C3C41C(=O)O` (stereo not drawn) [S1], in [1], the logP was 0.02 ± 0.01. The pKa in series [5] worked out at 3.96 ± 0.01. Moreover, in [4], the solubility is 149 mM (≈ 30.7 mg/mL).

As for `Cc1c(C(=O)Nc2ccc(N3C[C@@H](C)O[C@@H](C)C3)nc2)cccc1-c1ccc(OC(F)(F)F)cc1` [sonidegib], the logP in [6] is 4.26 (ref ([32])). In series [7], the “human liver microsome stability Clint” value is 20 µL/min/mg and the “human liver microsome stability t1/2” value is 70 min. In addition, the aqueous solubility in series [8] is <1.6 × 10^–3 (ref [8b]) mM. Besides, in series [9], the “mouse liver microsome stability Clint” value was 26 µL/min/mg and the “mouse liver microsome stability t1/2” value is reported as 53 min.

In the case of `COC(=O)c1ccc(C(=O)O)cc1` [compound 20, 4-(methoxycarbonyl)benzoic acid], the lipophilicity (logP) in [1] was 2.02 ± 0.02. The compound also yielded a pKa in series [5] of 3.84 ± 0.01. Also, in series [4], the solubility came to 1.38 mM (≈ 0.249 mg/mL).
